Measurements: ChEMBL document CHEMBL4689842, “EUbOPEN Chemogenomics Library wave 1” (2021)

Key:
HEK-293T = assay: Incucyte cell viability with HEK293T; assay type: toxicity, cell-based; settings: human, 10 µM, compound concentration 10 uM
U2OS = assay: Incucyte cell viability with U2OS; assay type: toxicity, cell-based; settings: human, 10 µM, compound concentration 10 uM
[1] = 0 h, replicate number 1, timepoint 0 hours
[2] = 6 h, replicate number 1, timepoint 6 hours
[3] = 12 h, replicate number 1, timepoint 12 hours
[4] = 18 h, replicate number 1, timepoint 18 hours
[5] = 24 h, replicate number 1, timepoint 24 hours
[6] = 0 h, replicate number 2, timepoint 0 hours
[7] = 12 h, replicate number 2, timepoint 12 hours
[8] = 18 h, replicate number 2, timepoint 18 hours
[9] = 24 h, replicate number 2, timepoint 24 hours
[10] = 6 h, replicate number 2, timepoint 6 hours
Further: filed as whole numbers so only -1 and 0 and 1 occur.

| SMILES | Growth Rate (HEK-293T; [1]) | Growth Rate (HEK-293T; [2]) | Growth Rate (HEK-293T; [3]) | Growth Rate (HEK-293T; [4]) | Growth Rate (HEK-293T; [5]) | Growth Rate (U2OS; [6]) | Growth Rate (U2OS; [3]) | Growth Rate (U2OS; [4]) | Growth Rate (U2OS; [5]) | Growth Rate (HEK-293T; [6]) | Growth Rate (U2OS; [2]) | Growth Rate (U2OS; [1]) | Growth Rate (U2OS; [7]) | Growth Rate (U2OS; [8]) | Growth Rate (HEK-293T; [7]) | Growth Rate (HEK-293T; [9]) | Growth Rate (U2OS; [9]) | Growth Rate (U2OS; [10]) | Growth Rate (HEK-293T; [10]) |
| --- | --- | --- | --- | --- | --- | --- | --- | --- | --- | --- | --- | --- | --- | --- | --- | --- | --- | --- | --- |
| O=C(Nc1ccc(-c2ccnc(Nc3ccc(N4CCOCC4)cc3)n2)cc1)[C@@H]1CCCN1 | 1 | 0 | 0 | 0 | 0 | 0 | 1 | 1 | 1 | – | – | – | – | – | – | – | – | – | – |
| CCc1cccc(CC)c1NC(=O)c1nn(C)c2c1CCc1cnc(Nc3ccc(N4CCN(C)CC4)cc3OC)nc1-2 | – | 0 | 0 | 0 | 0 | 0 | 0 | 0 | 0 | 0 | 1 | – | – | – | – | – | – | – | – |
| Cl.O=C(c1ccc(Nc2nccc(-c3cc4ccccc4s3)n2)cc1)N1CCC(N2CCCC2)CC1 | – | 0 | 0 | 0 | 0 | 0 | 0 | 0 | 0 | – | – | – | – | – | – | – | – | – | – |
| CN(C)C(=O)C(CCN1CCC(O)(c2ccc(Cl)cc2)CC1)(c1ccccc1)c1ccccc1.Cl [LOPERAMIDE HYDROCHLORIDE] | – | 0 | 0 | 0 | 0 | – | 0 | 0 | 0 | 1 | 0 | – | – | – | – | – | – | – | – |
| C=C1/C(=C\C=C2/CCC[C@]3(C)[C@@H]([C@H](C)/C=C/[C@H](C)C(C)C)CC[C@@H]23)C[C@@H](O)C[C@@H]1O [DOXERCALCIFEROL] | 0 | 0 | 0 | 0 | 0 | – | 1 | 1 | 0 | – | – | 0 | 0 | 0 | – | – | – | – | – |
| O=C1NC(=O)C(c2cnc3ccccn23)=C1c1cn2c3c(cc(F)cc13)CN(C(=O)N1CCCCC1)CC2 [LY-2090314] | 0 | 0 | – | 1 | 1 | – | 0 | 0 | 0 | – | 0 | 0 | – | – | 0 | 0 | – | – | – |
| CNc1cc(Oc2cc(C(=O)Nc3cc(N4CCN(C)CC4)cc(C(F)(F)F)c3)ccc2C)ncn1 | – | 0 | 0 | 0 | 0 | 1 | 0 | 0 | 0 | – | 0 | 0 | – | – | – | – | – | – | – |
| COc1ccc(-c2ccc3c(N4CCOCC4)nc(N4C[C@@H](C)O[C@@H](C)C4)nc3n2)cc1CO [Ku-0063794] | – | 0 | 0 | 0 | 0 | – | 1 | 0 | 0 | – | 1 | 0 | – | – | – | – | – | – | – |
| Cc1cn(-c2cc(NC(=O)c3ccc(C)c(Nc4nccc(-c5cccnc5)n4)c3)cc(C(F)(F)F)c2)cn1 [NILOTINIB] | 0 | 0 | 1 | 1 | 0 | 0 | 0 | 0 | 0 | – | 0 | – | – | 1 | 0 | 1 | 1 | – | – |
| CCN1CCN(c2ccc(Nc3cc(N(C)C(=O)Nc4c(Cl)c(OC)cc(OC)c4Cl)ncn3)cc2)CC1 [INFIGRATINIB] | – | 0 | 0 | 0 | 0 | 0 | 0 | 0 | 0 | – | 1 | – | – | – | – | – | – | – | – |
| Cl.O=c1c2cccn2c2ccccc2n1CCCN1CCC(c2ccc(Cl)cc2)CC1 | 0 | 0 | 0 | 0 | 0 | 0 | – | 1 | 1 | – | – | – | 1 | – | – | – | – | – | – |
| COCC(=O)NC/C=C/c1ccc2ncnc(Nc3ccc(Oc4ccc(C)nc4)c(C)c3)c2c1 [CP-724714] | – | 0 | 0 | 0 | 0 | 1 | 1 | 0 | 1 | – | 1 | 0 | – | – | – | – | 0 | – | – |
| COc1cc(N2CCC(N3CCN(C)CC3)CC2)ccc1Nc1ncnc(Nc2ccccc2S(=O)(=O)C(C)C)n1 [ASP-3026] | – | 0 | 0 | 0 | 0 | 0 | 0 | 0 | 0 | – | 0 | – | – | – | – | – | – | 1 | – |
| C=CCn1c(=O)c2cnc(Nc3ccc(N4CCN(C)CC4)cc3)nc2n1-c1cccc(C(C)(C)O)n1 [ADAVOSERTIB] | – | 0 | 0 | 0 | 0 | – | 0 | 0 | 0 | – | 0 | 0 | – | – | – | – | – | – | – |
| CN1CCC(=C2c3ccccc3CC(=O)c3sccc32)CC1.O=C(O)/C=C/C(=O)O [KETOTIFEN FUMARATE] | – | 0 | 0 | 0 | 0 | – | 1 | 1 | 1 | 1 | – | 1 | – | – | – | – | 0 | 0 | – |
| Cl.Oc1ccc2c3c1O[C@H]1c4[nH]c5c(c4C[C@@]4(O)[C@@H](C2)N(CC2CC2)CC[C@]314)C[C@@]1(O)[C@H]2Cc3ccc(O)c4c3[C@@]1(CCN2CC1CC1)[C@H]5O4 | 0 | 1 | 1 | 1 | 1 | – | 1 | 1 | 1 | – | 0 | 0 | 0 | 0 | – | 0 | 0 | – | – |
| CN1C2CCC1CC(OC(c1ccc(F)cc1)c1ccc(F)cc1)C2.Cl (stereo not drawn) | – | 0 | 0 | 0 | 0 | – | 1 | 0 | 0 | 1 | – | – | 0 | – | – | – | – | 0 | – |
| COC(=N)c1nc2ccc3ncnc(Nc4ccc(OC)cc4F)c3c2s1 | 0 | 0 | 0 | 0 | 0 | 1 | 0 | 0 | 0 | 1 | – | – | – | – | – | – | – | 1 | – |
| O=C1N/C(=N/c2ccccc2F)S/C1=C\c1ccc(C(=O)O)cc1 | – | – | 1 | – | 1 | 1 | 1 | 1 | 1 | – | – | 0 | 0 | 0 | – | – | 0 | – | – |
| COc1cc2ncnc(Nc3ccc(F)c(Cl)c3)c2cc1NC(=O)/C=C/CN1CCCCC1 [DACOMITINIB ANHYDROUS] | – | 0 | 0 | 0 | 0 | – | 0 | 0 | 0 | – | 0 | 0 | – | – | – | – | – | – | – |
| Cn1nc(C(F)(F)F)cc1-c1cnc(N2CCc3cc(S(=O)(=O)Nc4c(F)cc(Cl)cc4F)cc(N4CCCC4=O)c32)nc1 [TP-020] | 0 | 0 | 0 | 0 | 0 | 1 | 1 | 1 | 1 | 1 | 0 | – | 0 | 0 | – | – | 0 | – | 1 |
| CCc1cccc(CC)c1NC(=O)c1nn(C)c2c1CCc1cnc(Nc3ccc(C(=O)NC4CCN(C)CC4)cc3OC(F)(F)F)nc1-2 | – | 0 | 0 | 0 | 0 | 0 | 0 | 0 | 0 | – | 1 | – | – | – | – | – | – | 0 | – |
| O=C(Cc1ccc(-c2ccc(OCCN3CCOCC3)cc2)cn1)NCc1ccccc1 [TIRBANIBULIN] | – | 0 | 0 | 0 | 0 | 0 | 0 | 0 | 0 | – | 1 | – | – | – | – | – | – | – | – |
